Laboratory results: US5298502A, “Method and composition for photodynamic treatment and detection of tumors” (priority 1991, dated 1994)

What was measured:
HeLa cells [1] = test: Tetrapyrrole accumulation in treated HeLa cells (Example 1); type: cell-based, human; settings: 100 μM agent, 3 days in the dark
Method: HeLa cells (a human tumor cell line commonly employed for tumor research and obtained from the American Type Culture Collection), in logarithmic growth phase (having been cultured at 37° C. for five days in one-liter Falcon tissue culture flasks), were washed in phosphate buffered saline (PBS). A 0.25% solution of trypsin in PBS (2 mL) was added, and, after several minutes, the cells were gently removed from the flask and placed into 110 mL of a 25 mM solution of Hepes in Minimum Essential Medium (MEM) supplemented with 10% v/v inactivated calf serum, 1.1 mL of a 200 mM solution of glutamine in 0.85% saline solution, and 11,000 units of penicillin/11,000 mcg streptomycin.
Then, 5.0 mL aliquots of the resulting resuspended cell culture were each placed into a 50 mL Falcon tissue culture flask and (except for the control) mixed with the treating agent. The aliquots were then incubated in the dark at 37° C. for three days. The cells were then removed and extracted under green light in the following manner:
Cells were removed from the bottom of the flask with the addition of 0.8 mL of a 0.25% solution of trypsin in PBS. After 1 hour of incubation in the dark, cells and medium were removed from the flasks, placed into round bottom centrifuge tubes, and then subjected to two rounds of freeze-thaw conditions to disrupt the cells and allow for extraction.
Ten mL of basic acetone (90% acetone:10% of 0.1 N NH4 OH) was then added to each tube, and the tubes were centrifuged to remove protein and cell debris. Five mL of water was added to the supernatant, followed by 0.5 mL of a saturated aqueous solution of NaCl. The pH was then adjusted to 6.8 by the dropwise addition of 2 M KH2 PO4. The aqueous acetone extract was then loaded onto a C8 Baker Prep column. The columns were dried and then washed with 2 mL of water. The tetrapyrroles were eluted with 2×1.5 mL volumes of 90/10 CH3 OH/H2 O. Extracts were then quantified on a spectrofluorometer.
Agent A was supplied as a filter-sterilized 250 mM solution in water, pH 6.5. Agents B, C, D, and E were supplied as 50 mM solutions in acetone. Acetone was also added to the control to provide a concentration of 0.2% v/v therein. The amounts of the agents added to the cell cultures were such as to give the concentrations specified in the Table 1 below. The amounts of the tetrapyrrole protoporphyrin IX ("Proto IX") produced are shown in that Table.

cabbage loopers = test: Insecticidal test against cabbage loopers; settings: in vivo
mosquito larvae = test: Insecticidal test against mosquito larvae; settings: in vivo
HeLa cells [2] = test: Growth inhibition and Proto IX accumulation in HeLa cells (Example 2); type: cell-based, human; settings: 100 μM agent
Method: HeLa cells, in logarithmic growth phase having been cultured for 6 days in six one-liter Falcon tissue culture flasks at 37° C.), were washed in phosphate buffered saline (PBS). A 0.25% solution of trypsin in PBS was added, and, after several minutes, the cells were gently removed and placed into 110 mL of a 25 mM solution of Hepes in Minimum Essential Medium (MEM), supplemented with 10% v/v inactivated calf serum, 1.1 mL of a 200 mM solution of glutamine in 0.85% saline solution, and 11,000 units of penicillin/11,000 mcg streptomycin.
Aliquots (5.0 mL each) of the resuspended cell culture were placed into 50 mL Falcon tissue culture flasks, with or without herbicide, and incubated in the dark at 37° C. for 4 days, the herbicide being added in dilute acetone solution as in Example 1. Acetone was also added to the controls to provide a concentration of acetone of 0.2% v/v therein. The amount of herbicide was such as to provide the concentrations specified in Table 2 below.
Extraction: The media from each of the flasks were placed in glass round bottom tubes, while the cells adhering to the bottom of the flasks were loosened by the addition of 0.5 mL of a 0.25% solution of trypsin in PBS, and after several minutes at 37° C., then washed from the flasks and recombined with their media. Aliquots of 100 μL were then removed from each cell suspension to determine cell density. The remaining 5.4 mL of cell suspension was then sonified for 30 minutes to disrupt the cells.
Ten mL of basic acetone (90% acetone:10% 0.1 N NH4 OH) was then added to each tube, and the tubes were centrifuged to remove protein and cell debris. Five mL of water was added to the supernatant, followed by 0.5 mL of a saturated aqueous solution of NaCl. The pH was then adjusted to 6.8 by the dropwise addition of 2 M KH2 PO4. The aqueous acetone extract was then loaded onto a C8 Baker Prep column. The columns were dried and then washed with 2 mL of water. The tetrapyrroles were eluted with 3 mL of 90/10 CH3 OH/H2 O. As in Example 1, all these extraction procedures were carried out substantially entirely under non-protoporphrin IX-exciting light (e.g. green light) or in the dark (e.g. in opaque covered containers). The fluorescence of the extracts was then determined on a SPEX spectrofluorometer. Protoporphyrin IX ("Proto IX") accumulation was quantified utilizing predetermined extinction coefficients.

[3] = target: Protoporphyrinogen Oxidase; test: Protoporphyrinogen oxidase assay using isolated enzyme; type: biochemical, Peas (Pisum sativum var. Little Marvel); settings: isolated pea etioplast enzyme
Method: Plant Material and Homogenization: Peas (Pisum sativum var. Little Marvel) germinated at 20° C. in a dark growth chamber ten days. Plants were illuminated for one hour per day, which allowed for significant leaf expansion while minimizing chlorophyll synthesis. Leaves were pale yellow-green in color.
The leaves were then homogenized in 500 mL of grinding media consisting of 0.5 M mannitol, 10 mM HEPES, 20 mM TES, 1 mM EDTA, 1 mM MgCl2, 5 mM cysteine, and 0.2 BSA, pH 7.7. The brei was then passed through four layers of cheesecloth, then through a 43-micron nylon mesh. The hemogenate was then centrifuged at 4000 g for 3 minutes. The resultant pellet was utilized for plastid isolation.
Etioplast Isolation and Purification: The pellet (plastid fraction) was resuspended in 40 mL of assay media (grinding media minus cysteine and containing 1 mM DTE and 1% ESA) and centrifuged at 150 g to remove cellular debris. The resultant supernatant was centrifuged at 4000 g, and the resuspended pellets were overlaid on 40% Percoll. […]
Protein content was determined utilizing the BioRad method. […]
Purification Utilizing DEAE Chromatography: A 0.75 mL volume of plastid-solubilized-enzyme preparation was loaded onto a Waters Protein-Pak DEAE-5PW column (8 mm×7.5 cm) equilibrated with Elution Buffer. […] Peaks were detected using a Waters 494 UV detector at 260 nm, sensitivity:1AU. […]

[4] = tested on: enzymatic conversion of Proto IX to magnesium Proto IX; test: Conversion of Proto IX to magnesium Proto IX in chloroplast suspension; type: biochemical, Cucumber (Cucumis sativus L.); settings: 10 μm AFM, in the presence of ATP
tumors = settings: injected into animals; cited from earlier work
human erythrocytes = settings: introduced into human erythrocytes; cited from earlier work
murine leukemia cells = settings: cited from earlier work

SMILES | Amount of Proto IX (HeLa cells [1]) [pmol] | Fluorescence Emission cps 400/630 (HeLa cells [1]) [cps] | activity against cabbage loopers (cabbage loopers) | activity against mosquito larvae (mosquito larvae) | Amount of Proto IX (HeLa cells [2]; average amount per 10^6 cells) [pmol] | inhibition at 100 µM (HeLa cells [2]; Homo sapiens, HeLa, 96 h, 4 days in the dark) [%] | pI50 (negative log of the I50 Molarity) [3] | IC50 ([3]; read-out: I50) [nM] | effect on enzymatic conversion of Proto IX to magnesium Proto IX [4] | protoporphyrin in the tumors after injection (tumors) | photosensitizing effect (human erythrocytes) | photosensitizing potency (murine leukemia cells)
COC(=O)c1cc(Oc2ccc(C(F)(F)F)cc2Cl)ccc1[N+](=O)[O-] [Agent B, Acifluorfen-methyl] | 1.3 | 12921 | active | active | 5.20 | 99 | 7.1 | 80 | no inhibiting effect | – | – | –
C=CC1=C(C)c2cc3[nH]c(cc4nc(cc5[nH]c(cc1n2)c(C)c5CCC(=O)O)C(CCC(=O)O)=C4C)c(C)c3C=C [protoporphyrin] | – | – | – | – | – | – | – | – | – | no detectable protoporphyrin in the tumors | marked photosensitizing effect | most potent photosensitizing agent of those tested
